These are literature values, as cited in US20150150814A1, “STABLE ORAL PHARMACEUTICAL COMPOSITION OF SOLIFENACIN” (RANBAXY LABORATORIES LIMITED, priority 2013, published 2015).

For this data set the following is noted: water at room temperature.

Take `O=C(O[C@H]1CN2CCC1CC2)N1CCc2ccccc2[C@@H]1c1ccccc1` [Solifenacin succinate, (1S)-(3R)-1-azabicyclo [2.2.2] oct-3-yl3,4-dihydro-1-phenyl-2(1H)iso-quinolinecarboxylate]: the solubility in water result is reported as “freely soluble”.
